From patent US10227369B2, “Short-chain fatty acid hexosamine analogs and their use in tissue engineering applications” (THE JOHNS HOPKINS UNIVERSITY, priority 2013, dated 2019)

Experiments:
[1] = test system: chondrogenic-induced MSCs stimulated by IL-1β; assay: IL-1β-stimulated chondrogenic-induced MSCs in 3D PEGDA hydrogels: biochemical analysis; assay type: cell-based, goat; settings: 10 ng/ml IL-1β, 21 days exposure
Description: (§1) Goat MSCs were isolated from 2- to 4-year-old goats (Thomas D. Morris, Inc., Reisterstown, Md.), as previously described. Briefly, bone marrow aspirates treated with 6,000 U/ml heparin were washed twice with PBS. Cells were plated at a density of 120,000 mononuclear cells/cm^2 and cultured in high glucose DMEM supplemented with 10% (v/v) FBS, 2 mM L-glutamine, 100 U/ml penicillin and 100 μg/ml streptomycin. The following day, tissue culture dishes were washed with PBS and medium was replaced. Medium changes were performed 3 times per week. Cells were passaged using 0.25% trypsin. They were used for experiments after passage four.
Photoencapsulation in Poly(Ethylene Glycol)-Diacrylate (PEGDA) Hydrogels and Construct Culturing. […]
(§2) Biochemical Analysis. The constructs (n=3 for chondrocyte experiments and n=4 for chondrogenic experiments) were lyophilized for 48 hours and the dry weights measured. […] Quantification of DNA content was carried out using a Hoescht Dye 33342 DNA assay. […] Quantification of sulfated glycosaminoglycans (sGAG), a molecule found in cartilage ECM, was carried out using a 1,9-dimethylmethylene blue (DMMB) dye assay; chondroitin sulfate was used to generate standard curves. Quantification of collagen was carried out via measuring hydroxyproline content after hydrolyzing in 6 N HCl overnight at 120° C. […]

[2] = test system: chondrogenic-induced MSCs; assay: Chondrogenic-induced MSCs in 3D PEGDA hydrogels: biochemical analysis and histology; assay type: cell-based, goat; settings: 21 days
Description: as §1
Photoencapsulation in Poly(Ethylene Glycol)-Diacrylate (PEGDA) Hydrogels and Construct Culturing. For all 3D culture experiments, cells were photoencapsulated in PEGDA hydrogels, as previously described. Briefly, 100 mg PEGDA (3.4 kDa, SunBio, Anyang City, South Korea) was dissolved in 1 ml sterile PBS. A photoinitiator solution of Irgacure® 2959 (CIBA Specialty Chemicals) was prepared by dissolving 100 mg of Irgacure® 2959 in 1 ml 70% ethanol. Five microliters of the Irgacure® 2959 solution was added to 1 ml of PEGDA solution. Cells were suspended in the hydrogel precursor solution at a density of 20 million cells/ml and polymerized in sterile molds. A high cell density was chosen as it has been shown. Based on our previous studies a high cell density was chosen to best to support a cell phenotype and differentiation and cell phenotype. Polymerization was carried out using UV light (365 nm, 3.2 mW/cm^2) exposure for 5 minutes. […]
as §2

[3] = test system: chondrogenic-induced MSCs; assay: Chondrogenic-induced MSCs in 3D PEGDA hydrogels: real-time PCR gene expression; assay type: cell-based, goat
Description: as §1
(§3) Photoencapsulation in Poly(Ethylene Glycol)-Diacrylate (PEGDA) Hydrogels and Construct Culturing. For all 3D culture experiments, cells were photoencapsulated in PEGDA hydrogels, as previously described. Briefly, 100 mg PEGDA (3.4 kDa, SunBio, Anyang City, South Korea) was dissolved in 1 ml sterile PBS. A photoinitiator solution of Irgacure® 2959 (CIBA Specialty Chemicals) was prepared by dissolving 100 mg of Irgacure® 2959 in 1 ml 70% ethanol. Five microliters of the Irgacure® 2959 solution was added to 1 ml of PEGDA solution. Cells were suspended in the hydrogel precursor solution at a density of 20 million cells/ml and polymerized in sterile molds. A high cell density was chosen as it has been shown. Based on our previous studies a high cell density was chosen to best to support a cell phenotype and differentiation and cell phenotype. Polymerization was carried out using UV light (365 nm, 3.2 mW/cm^2) exposure for 5 minutes.
For chondrogenesis experiments, the cell-laden hydrogels were cultured in chondrogenic induction medium (high glucose DMEM supplemented with 50 μg/ml ascorbic acid-2-phosphate, 40 μg/ml L-proline, 100 μg/ml sodium pyruvate, 1% ITS-premix (6.25 μg/ml insulin, 6.25 μg/ml transferrin, 6.25 ng/ml selenous acid, 1.25 mg/ml bovine serum albumin (BSA), 5.35 μg/ml linoleic acid (Collaborative Biomedical, BD Bioscience, Bedford, Mass.)) and 10 ng/ml TGF-β1 (Fitzgerald Industries International, Acton, Mass.) with specified concentrations of GalNAc-a or 100 nM dexamethasone (as a control). Constructs were cultured for 21 days with medium changes 3 times per week. For IL-1β stimulation, the cell-laden hydrogels were cultured for 3 days in chondrogenic induction medium supplemented with 10 ng/ml IL-1β. Constructs were cultured for an additional 21 days with chondrogenic induction medium supplemented with 10 ng/ml IL-1β and the specified concentration of GalNAc-a.
RNA Isolation and Real-Time PCR. Total RNA was extracted using TRIzol® reagent (Life Technologies, Grand Island, N.Y.) following the manufacturer's protocol. cDNA was synthesized using Superscript® II reverse transcriptase (Life Technologies, Grand Island, N.Y.) following the manufacturer's protocol. Real-time PCR was carried out using a StepOnePlus™ Real-Time PCR System (Life Technologies, Grand Island, N.Y.). mRNA amounts for bovine primers were calculated using the ΔΔCt method. Relative mRNA quantities for goat primers were calculated using the Pfaffl method.

Chondrocytes = assay: WST-1 metabolic activity/toxicity screening of monolayer chondrocytes; assay type: cell-based, bovine; settings: 3 days exposure, 0-320 μM tested
Description: Cell Isolation and Culturing. Bovine chondrocytes were isolated from 4- to 8-week-old calves (Research 87, Inc., Boylston, Mass.), as previously described. Briefly, cartilage was dissected from the femoral patellar groove and condyles and minced into approximately 1 mm^2 pieces. Cells were isolated from the tissue by digesting overnight at 37° C. with 2 mg/ml type II collagenase (Worthington Biochemical Corp., Lakewood, N.J.), 5% fetal bovine serum (FBS), 100 U/ml penicillin and 100 μg/ml streptomycin on an orbital shaker. The cell suspension was passed through a 70 μm cell strainer, followed by centrifugation. Cells were washed 3 times using sterile phosphate buffered saline (PBS). […]
Metabolic Activity/Toxicity Screening: Water Soluble Tetrazonium-1 (WST-1) Assay. […] Absorbance of the wells was read using a microplate reader at a wavelength of 450 nm. The absorbance of the wells containing WST-1 reagent with no cells was subtracted from the absorbance readings. Data is presented as the background subtracted reading normalized to 0 μM wells from five independent experiments for each hexosamine analog.

[4] = test system: IL-1β-stimulated chondrocytes; assay: IL-1β-stimulated chondrocytes in 3D PEGDA hydrogels: biochemical analysis (DNA, sGAG, collagen), histology, immunohistochemistry; assay type: cell-based, bovine; settings: 10 ng/ml IL-1β, 21 days
Description: Cell Isolation and Culturing. Bovine chondrocytes were isolated from 4- to 8-week-old calves (Research 87, Inc., Boylston, Mass.), as previously described. Briefly, cartilage was dissected from the femoral patellar groove and condyles and minced into approximately 1 mm^2 pieces. Cells were isolated from the tissue by digesting overnight at 37° C. with 2 mg/ml type II collagenase (Worthington Biochemical Corp., Lakewood, N.J.), 5% fetal bovine serum (FBS), 100 U/ml penicillin and 100 μg/ml streptomycin on an orbital shaker. The cell suspension was passed through a 70 μm cell strainer, followed by centrifugation. Cells were washed 3 times using sterile phosphate buffered saline (PBS). Chondrocyte medium was composed of high glucose Dulbecco's Modified Eagle's Medium (DMEM) supplemented with 10 mM HEPES, 0.4 mM L-proline, 50 μg/ml ascorbic acid, 10% (v/v) fetal bovine serum (FBS; Hyclone Laboratories, Inc., Logan, Utah), 0.1 mM non-essential amino acids, 100 U/ml penicillin and 100 μg/ml streptomycin.
as §3
For chondrocyte experiments, the cell-laden hydrogels were cultured in chondrocyte medium supplemented with 10 ng/ml IL-1β for 3 days. Following the initial 3 days, constructs were cultured with medium containing specific concentrations of hexosamine analog with 10 ng/ml IL-1β for an additional 21 days. The medium was changed 3 times per week.
Biochemical Analysis. The constructs (n=3 for chondrocyte experiments and n=4 for chondrogenic experiments) were lyophilized for 48 hours and the dry weights measured. Constructs were then homogenized in 125 μg/ml papainase (Worthington Biochemical Corp., Lakewood, N.J.) and digested for 16 hours at 60° C. Quantification of DNA content was carried out using a Hoescht Dye 33342 DNA assay. Calf thymus DNA was used to generate standard curves. Quantification of sulfated glycosaminoglycans (sGAG), a molecule found in cartilage ECM, was carried out using a 1,9-dimethylmethylene blue (DMMB) dye assay; chondroitin sulfate was used to generate standard curves. Quantification of collagen was carried out via measuring hydroxyproline content after hydrolyzing in 6 N HCl overnight at 120° C. The reaction of hydroxyproline with chloramine-T and p-dimethylaminobenzaldehyde was performed as a measure of total collagen content; hydroxyproline was used to generate standard curves.
Histology and Immunohistochemistry. Constructs were fixed in 10% formalin or 4% paraformaldehyde followed by dehydration in increasing concentrations of ethanol, embedded in paraffin and sliced into 5 μm sections. After paraffin removal and subsequent rehydration, sections were stained for proteoglycans using Safranin-O and fast green or prepared for immunohistochemistry. For immunohistochemical staining of type II collagen, endogenous peroxidase was quenched using 3% (v/v) hydrogen peroxide in methanol. Sections were then incubated at 37° C. with 2.5% (w/v) hyaluronidase and stained using a Histostain-SP Kit (AEC, Broad Spectrum) (Life Technologies, Grand Island, N.Y.) following the manufacturer's instructions. […]

[5] = both medium conditions, 21 days, dexamethasone 100 nM

Which DNA content [1] does the source give for `CCCC(=O)OC[C@H]1OC(O)[C@H](NC(C)=O)[C@@H](OC(=O)CCC)[C@H]1OC(=O)CCC` (stereo partly drawn) [GalNAc-a, 3,4,6-O-Bu3GalNAc] here?
Its DNA content is “did not have an effect”.

What about the “sGAG accumulation normalized to DNA” value [1] of the same compound?
Its value is “decreased sGAG accumulation”.

What about the “chondrogenic differentiation of the MSCs” value [2] of the same compound?
The value was “inhibits chondrogenic differentiation”.

What about the “total collagen accumulation normalized to DNA” value ([2]; ascorbic acid-containing medium, GalNAc-a varying concentrations, dexamethasone 100 nM) of the same compound?
Its value is “dose-dependent decrease”.

What about the “sGAG accumulation normalized to DNA” value ([2]; both medium conditions (with/without ascorbic acid), GalNAc-a varying concentrations, dexamethasone 100 nM) of the same compound?
The value was “dose-dependent decrease”.

What about the DNA content ([2]; with or without ascorbic acid) of the same compound?
The DNA content was “did not change”.

What about the SOX9 gene expression ([3]; 50 μM to 150 μM, both medium conditions, 21 days) of the same compound?
Its SOX9 gene expression is “decreased in a dose-dependent manner”.

And the SOX9 gene expression ([3]; 50 μM, ascorbic acid-containing medium, 21 days)?
The SOX9 gene expression was “increased SOX9 expression”.

What about the “type I collagen gene expression” value ([3]; 50 μM, both medium conditions, 21 days) of the same compound?
Its value is “initially increased”.

What about the “type I collagen gene expression compared to no analog exposure” value ([3]; above 50 μM for GalNAc-a, dexamethasone 100 nM, both medium conditions) of the same compound?
Its value is “remained elevated”.

And the MMP13 gene expression ([3]; all analog concentrations, regardless of medium condition)?
The MMP13 gene expression was “increased at all analog concentrations”.

And the aggrecan gene expression [3, 5]?
The aggrecan gene expression was “followed a similar trend as SOX9 expression”.

What about the “type II collagen gene expression” value [3, 5] of the same compound?
The value was “decreased type II collagen expression”.

What about the “concentration from which reduced viability was observed” value (Chondrocytes) of the same compound?
The value was ≥ 160 µM.

What about the “proteoglycan deposition (Safranin-O staining)” value ([4]; at 150 μM) of the same compound?
Its value is “further increase”.

What about the “sGAG accumulation normalized to DNA” value ([4]; at 150 μM) of the same compound?
Its value is “further increase”.

And the “type II collagen deposition (immunohistochemistry)” value ([4]; starting at 50 μM, comparison of the three analogs)?
The value was “highest staining intensity”.

What about the “cartilage-like tissue formation (sGAG content, proteoglycan and type II collagen staining)” value ([4]; comparison of the three analogs) of the same compound?
The value was “greatest cartilage-like tissue formation”.
